Measurements published in patent publication US5238936A, “Trisubstituted triazines” (Adir et Compagnie, priority 1991, dated 1993).

Experiments:
line DC-3F/AD [1] = test: Flow cytometry: intracellular accumulation of adriamycin by cells of the line DC-3F/AD; type: cell-based, Chinese hamster; settings: ADR 50 μM, 5 hours
From the text: Also measured was the effect of the compounds on the intracellular concentration of the cytotoxic agent. In effect, the known compounds for reversing MDR act by increasing the intracellular concentration of cytotoxic agent. This effect is the consequence of inhibiting the action of gP 170 which is responsible for the efflux of the drug.
By measuring that fluorescence, it is thus possible to obtain a relative measurement of the intracellular concentration of ADR.
The cells 500×10^3 per ml were exposed simultaneously to ADR at a fixed concentration (50 μM) and to the tested compounds at various concentrations. After 5 hours' incubation, the intracellular accumulation of ADR was evaluated by FCM. […] The analysis of each of the samples was carried out on a total of 10,000 cells at a rate of 1,000 cells per second.
The results were presented in the form of linear histograms of the intracellular ADR fluorescence.
Expression of the results: for each of the histograms the mean fluorescence per channel (MEAN) was determined by the information system of the apparatus. For all experiments:
a negative control (cells without ADR) fixed the autofluorescence threshold.
a positive control (cells with ADR) determined the MEAN value=MN1.
the "test" tubes (cells with ADR and with compound) were used to determine, for each of the compounds and at each of the concentrations, the MEAN values=MN2.
The results are expressed in the form of variations from the mean fluorescence obtained for each of the "test" tubes (MN2) in relation to the mean fluorescence obtained with the positive control (MNl): VAR-MEAN=MN2-MN1. The parameter expressed is thus the increase in ADR fluorescence in the presence of the tested compounds.

line DC-3F/AD [2] = test: Cytotoxicity (Microculture Tetrazolium Assay): reversal of resistance to actinomycin D, line DC-3F/AD; type: cell-based, Chinese hamster; settings: 4 days
From the text: The pharmacological study of the compounds of the present invention consisted first of all in an evaluation in vitro carried out on resistant cells. The parameter measured is the cytotoxicity of the antitumour drug, quantified in the absence and in the presence of the reversing compound.
The cells are distributed on microplates and exposed to the cytotoxic compounds (actinomycin D for line DC-3F/AD and adriamycin for line KB-Al) at 9 concentrations (2 by 2 series dilutions). The compounds tested for their capacity to reverse MDR are added at the same time as the cytotoxic agent.
The cells are then incubated for 4 days. […] The results are expressed as a reversion factor (RF): PG,29 [formula]

Compound	VAR-MEAN (increase in ADR fluorescence), line DC-3F/AD (line DC-3F/AD [1]; 1.0 μM compound)	VAR-MEAN (increase in ADR fluorescence), line DC-3F/AD (line DC-3F/AD [1]; 5.0 μM compound)	VAR-MEAN (increase in ADR fluorescence), line DC-3F/AD (line DC-3F/AD [1]; 10 μM compound)	VAR-MEAN (increase in ADR fluorescence), line DC-3F/AD (line DC-3F/AD [1]; […] compound)	Reversion factors (cytotoxicity) with the line DC-3F/AD (line DC-3F/AD [2]; 1 μM compound)	Reversion factors (cytotoxicity) with the line DC-3F/AD (line DC-3F/AD [2]; 5 μM compound)	Reversion factors (cytotoxicity) with the line DC-3F/AD (line DC-3F/AD [2]; 0.5 μM compound)
C=CCNc1nc(NCC=C)nc(N2CCC(NCC3c4ccccc4CSc4ccccc43)CC2)n1 (racemic) [Example 26, 2,4-diallylamino-6-{4-[((R,S)-6,11-dihydro-dibenzo[b,e]thiepin-11-yl)methylamino]piperidin-1-yl}-1,3,5-triazine]	4.3	33.5	32.6	17.8	6.8	866.6	
C=CCNc1nc(NCC=C)nc(N2CCC(NCC3c4ccccc4NC(=O)c4ccccc43)CC2)n1 (racemic) [Example 27, 2,4-diallylamino-6-{4-[((R,S)-6,11-dihydro-dibenzo[b,e]-6-oxoazepin-11-yl)methylamino]piperidin-1-yl}-1,3,5-triazine]	0.0	2.2		0.0	1.1	2.1	
C=CCNc1nc(NCC=C)nc(N2CCC(NCC3c4ccccc4CS(=O)(=O)c4ccccc43)CC2)n1 (racemic) [Example 32, 2,4-diallylamino-6-{4-[((R,S)-6,11-dihydro-5,5-dioxo-dibenzo[b,e]thiepin-11-yl)methylamino]piperidin-1-yl}-1,3,5-triazine]	0.0	12.4		1.9	1.3	27.4	
C=CCNc1nc(NCC=C)nc(N2CCN(C3c4ccccc4CCc4ccccc43)CC2)n1 [Example 1, 2,4-Diallylamino-6-{4-(10,11-dihydro-5H-dibenzo[a,d]cyclohepten-5-yl)piperazin-1-yl}-1,3,5-triazine]	8.4	16.0	19.3	4.9	27	309	
C=CCNc1nc(NCC=C)nc(NCCN2CCN(C3c4ccccc4CCc4ccccc43)CC2)n1 [Example 2, 2,4-Diallylamino-6-{2-[4-(10,11-dihydro-5H-dibenzo[a,d]cyclohepten-5-yl)piperazin-1-yl]ethylamino}-1,3,5-triazine]	10.1	10.2	10.5	14.7	1		0.8
C=CCNc1nc(NCC=C)nc(N2CCC(NC3c4ccccc4CCc4ccccc43)CC2)n1 [Example 4, 2,4-diallylamino-6-[4-(10,11-dihydro-5H-dibenzo[a,d]cyclohepten-5-ylamino)piperidin-1-yl]-1,3,5-triazine]	16.2	25.5	28.1	21.8	66	755	21
C=CCNc1nc(NCC=C)nc(NCC(O)CN2CCN(C3c4ccccc4CCc4ccccc43)CC2)n1 (stereo not drawn) [Example 6, 2,4-diallylamino-6-{3-[4-(10,11-dihydro-5H-dibenzo[a,d]cyclohepten-5-yl)piperazin-1-yl]-2-hydroxypropylamino}-1,3,5-triazine]	11.0	24.3	27.6	14.4	1.1		0.9
C=CCNc1nc(NCC=C)nc(NCC2CCN(C3c4ccccc4CCc4ccccc43)CC2)n1 [Example 7, 2,4-diallylamino-6-{[1-(10,11-dihydro-5H-dibenzo[a,d]cyclohepten-5-yl)piperidin-4-yl]methylamino}-1,3,5-triazine]	3.4	10.1	17.4	3.9	1.1	9.7	1.2
C=CCNc1nc(NCC=C)nc(NCC2CCN(CC3c4ccccc4CCc4ccccc43)CC2)n1 [Example 8, 2,4-diallylamino-6-{[1-[(10,11-dibenzo[a,d]cyclohepten-5-yl)methyl]piperidin-4-yl]methylamino}-1,3,5-triazine]	1.3	19.3	21.0	11.4	1.6	353	0.8
C=CCNc1nc(NCC=C)nc(N2CCC(NCC3c4ccccc4Oc4ccccc43)CC2)n1 [Example 9, 2,4-diallylamino-6-[4-(xanthen-9-ylmethylamino)-piperidin-1-yl]-1,3,5-triazine]	13.4	19.4	25.7	18.1	39	844	4.8
C=CCNc1nc(NCC=C)nc(N2CCC(NCC34CCC(c5ccccc53)c3ccccc34)CC2)n1 [Example 10, 2,4-diallylamino-6-{4-[(9,10-dihydro-9,10-ethanoanthracen-9-yl)methylamino]piperidin-1-yl}-1,3,5-triazine]	12.3	20.2	30.7	13.5	1.9	96	1
